According to patent US4046762A, “Esters and amides of 3-aryl-1,4 benzodioxan-2-carboxylic acids” (Instituto Luso Farmaco D'Italia S.r.l., priority 1972, dated 1977):
Where a name gives a salt, the structure may show the parent alone.

Experiments:
tail of mouse = assay: Local anaesthetic activity, tail of mouse; type: in vivo
[1] = tested on: Stretching from acetic acid; assay: Stretching from acetic acid; type: in vivo; details: for ED50: read-out: Stretching from acetic acid, DE50
Antituxive activity = assay: Antituxive activity; type: in vivo; details: for ED50: read-out: Antituxive activity, DE50
sciatic nerve of rat = assay: Local anaesthetic activity, sciatic nerve of rat
[2] = Indicative acute toxicity, mouse (intraperitoneally); details: in vivo, ip, read-out: Indicative acute toxicity, DL50
ileum of Guinea pig = assay: Antihystaminic activity, ileum of Guinea pig; details: Cavia porcellus, 10 γ/ml
Oedema from charragenin = assay: Oedema from charragenin, rat; type: in vivo; details: i.p.
central nervous system [3] = assay: Activity on central nervous system, mouse: depression of spontaneous motility; type: in vivo; details: orally
Antipyresis = assay: Antipyresis, rat; type: in vivo; details: 65 mg/kg
central nervous system [4] = assay: Activity on central nervous system, mouse: Catalepsy (haloperidol); type: in vivo; details: orally, 15 mg/kg
central nervous system [5] = assay: Activity on central nervous system, mouse: Potentiation of barbituric hypnosis; type: in vivo; details: orally, 15 mg/kg
central nervous system [6] = assay: Activity on central nervous system, mouse: Stereotipy (apomorphine); type: in vivo; details: orally, 40 mg/kg
central nervous system [7] = assay: Activity on central nervous system, mouse: Stereotipy (amphetamine); type: in vivo; details: orally, 180 mg/kg
Arrhytmia CaCl2 = Arrhytmia CaCl2 - rat; type: in vivo; details: intravenously, 7.5 mg/kg

For `O=C(OCCOCCN1CCOCC1)C1Oc2ccccc2OC1c1ccccc1` (stereo not drawn) [LR 348, morpholinoethoxyethyl (3-phenyl-1,4-benzodioxan-2-yl)-carboxylate,hydrochloride], the “Local anaesthetic activity, tail of mouse, DE50” value (tail of mouse) was 2.70 mg/mL, the ED50 [1] was 15.6 mg/kg and the ED50 (Antituxive activity) was 50 mg/kg. The “Local anaesthetic activity, sciatic nerve of rat, DE50” value (sciatic nerve of rat) was 12.2 mg/mL, the LD50 [2] was 250 mg/kg and the inhibition at 10 µg/mL (ileum of Guinea pig) was 60%. The “Oedema from charragenin, %” value (Oedema from charragenin; 50 mg/kg) was 40%.
For `CCN(CC)CCOCCOC(=O)C1Oc2ccccc2OC1c1ccccc1` (stereo not drawn) [LR 349, n,n-diethylaminoethoxyethyl (3-phenyl-1,4-benzodioxan-2-yl)-carboxylate, citrate], the “Local anaesthetic activity, tail of mouse, DE50” value (tail of mouse) was 2.85 mg/mL, the “Stretching from acetic acid, %” value ([1]; 10 mg/kg) was 20% and the ED50 (Antituxive activity) was 39.5 mg/kg. The “Local anaesthetic activity, sciatic nerve of rat, DE50” value (sciatic nerve of rat) was 11.2 mg/mL, the LD50 [2] was 200 mg/kg and the “Oedema from charragenin, %” value (Oedema from charragenin; 50 mg/kg) was 50%.
With `CC(C)NC(=O)C1Oc2ccccc2OC1c1ccccc1` (stereo not drawn) [LR 367, n-(3-phenyl-1,4-benzodioxan-2-ylcarbonyl)-isopropylamine] the “depression of spontaneous motility, %” value (central nervous system [3]; 150 mg/kg) was 32%, the ED50 [1] was 138 mg/kg and the ED50 (Antituxive activity) was 86 mg/kg. The LD50 [2] was > 3000 mg/kg and the “Oedema from charragenin, %” value (Oedema from charragenin; 200 mg/kg) was 30%.
For `O=C(C1Oc2ccccc2OC1c1ccccc1)N1CCN(c2ccccc2)CC1` (stereo not drawn) [LR 394, n'-phenyl-N-(3-phenyl-1,4-benzodioxan-2-ylcarbonyl)-piperazine.H2 0], the ED50 (central nervous system [3]; po, read-out: depression of spontaneous motility, DE50) was 33.5 mg/kg, the ED50 [1] was 22 mg/kg and the “Antituxive activity, %” value (Antituxive activity; 10 mg/kg) was 64%. The “Antipyresis, %” value (Antipyresis) was 100%, the LD50 [2] was 330 mg/kg and the “Oedema from charragenin, %” value (Oedema from charragenin; 42 mg/kg) was 50%.
In the case of `CCN(CC)CCNC(=O)C1Oc2ccccc2OC1c1ccccc1` (stereo not drawn) [LR 510, n-(n',n'-diethylaminoethyl)-(3-phenyl-1,4-benzodioxan-2-ylcarbonyl)-amine], the “Catalepsy (haloperidol), %” value (central nervous system [4]) was 33%, the “Potentiation of barbituric hypnosis, %” value (central nervous system [5]) was 20% and the LD50 [2] was 75 mg/kg.
For `O=C(NO)C1Oc2ccccc2OC1c1ccccc1` (stereo not drawn) [LR 518, (3-phenyl-1,4-benzodioxan-2-yl)-carbohydroxamic acid], the LD50 [2] was 175 mg/kg, the “Stereotipy (apomorphine), %” value (central nervous system [6]) was 30% and the “Oedema from charragenin, %” value (Oedema from charragenin; 40 mg/kg) was 12%.
In the case of `O=C(C1Oc2ccccc2OC1c1ccccc1)N1CCOCC1` (stereo not drawn) [LR 519, n-(3-phenyl-1,4-benzodioxan-2-ylcarbonyl)-morpholine], the “Stereotipy (amphetamine), %” value (central nervous system [7]) was 20%, the LD50 [2] was 750 mg/kg and the “Oedema from charragenin, %” value (Oedema from charragenin; 180 mg/kg) was 15%.
In the case of `CCN(CC)CCOC(=O)C1Oc2ccccc2OC1c1ccccc1` (stereo not drawn) [LR 520, n,n-diethylaminoethyl (3-phenyl-1,4-benzodioxan-2-yl)-carboxylate,citrate], the “Arrhytmia CaCl2” value (Arrhytmia CaCl2) was 40, the LD50 [2] was 300 mg/kg and the “Oedema from charragenin, %” value (Oedema from charragenin; 60 mg/kg) was 9%.
